Converted amounts (≈) assume the structure as drawn.
Key:
[1] = system: Staphylococcus aureus; test: Antibacterial activity against Staphylococcus aureus Smith after 24 hrs by broth microdilution method; type: functional; details: read-out: MIC
[2] = Toxicity assessed as hemolysis in erythrocytes at 100 mg/L; type: cell-based, Erythrocyte; details: human, read-out: Activity
[3] = system: Escherichia coli; test: Antibacterial activity against Escherichia coli SKF-12140 after 24 hrs by broth microdilution method; type: functional; details: read-out: MIC
[4] = system: Staphylococcus aureus; test: Antibacterial activity against vancomycin-intermediate resistant Staphylococcus aureus clinical isolate after 24 hrs by broth microdilution method; type: functional
[5] = system: Enterococcus faecium; test: Antibacterial activity against vancomycin A-resistant Enterococcus faecium clinical isolate in presence of 30% bovine serum after 24 hrs by broth microdilution method; type: functional
[6] = system: Staphylococcus aureus; test: Antibacterial activity against vancomycin-intermediate resistant Staphylococcus aureus clinical isolate in presence of 30% bovine serum after 24 hrs by broth microdilution method; type: functional
[7] = system: Staphylococcus aureus; test: Antibacterial activity against methicillin-resistant Staphylococcus aureus clinical isolate after 24 hrs by broth microdilution method; type: functional; details: read-out: MIC
[8] = system: Staphylococcus aureus; test: Antibacterial activity against methicillin-resistant and vancomycin-intermediate resistant Staphylococcus aureus clinical isolate after 24 hrs by broth microdilution method; type: functional; details: read-out: MIC
[9] = system: Enterococcus faecium; test: Antibacterial activity against Enterococcus faecium after 24 hrs by broth microdilution method; type: functional; details: read-out: MIC
[10] = Toxicity assessed as hemolysis in erythrocytes at 200 mg/L; type: cell-based, Erythrocyte; details: human, read-out: Activity
[11] = system: Enterococcus faecalis; test: Antibacterial activity against vancomycin-resistant Enterococcus faecalis in presence of 30% bovine serum after 24 hrs by broth microdilution method; type: functional
[12] = system: Staphylococcus aureus; test: Antibacterial activity against Staphylococcus aureus Smith in presence of 30% bovine serum after 24 hrs by broth microdilution method; type: functional
[13] = system: Candida albicans; test: Antifungal activity against Candida albicans SKF-2270 after 24 hrs by broth microdilution method; type: functional; details: read-out: MIC
[14] = Toxicity assessed as hemolysis in erythrocytes at 400 mg/L; type: cell-based, Erythrocyte; details: human, read-out: Activity
[15] = system: Streptococcus pyogenes; test: Antibacterial activity against Streptococcus pyogenes C203 after 24 hrs by broth microdilution method; type: functional; details: C203, 24 h, read-out: MIC
[16] = system: Enterococcus faecalis; test: Antibacterial activity against Enterococcus faecalis after 24 hrs by broth microdilution method; type: functional; details: read-out: MIC
[17] = system: Enterococcus faecium; test: Antibacterial activity against vancomycin A-resistant Enterococcus faecium clinical isolate after 24 hrs by broth microdilution method; type: functional; details: read-out: MIC
[18] = system: Enterococcus faecalis; test: Antibacterial activity against vancomycin A-resistant Enterococcus faecalis after 24 hrs by broth microdilution method; type: functional; details: read-out: MIC

Row | Structure (SMILES) | MIC [1] [µg/mL] | hemolysis at 100 mg/L [2] [%] | MIC [3] [µg/mL] | MIC [4] [µg/mL] | MIC [5] [µg/mL] | MIC [6] [µg/mL] | MIC [7] [µg/mL] | MIC [8] [µg/mL] | MIC [9] [µg/mL] | hemolysis at 200 mg/L [10] [%] | MIC [11] [µg/mL] | MIC [12] [µg/mL] | MIC [13] [µg/mL] | hemolysis at 400 mg/L [14] [%] | MIC [15] [µg/mL] | MIC [16] [µg/mL] | MIC [17] [µg/mL] | MIC [18] [µg/mL]
1 | CCC/C=C/C=C/CC(=O)N[C@@H](CC(N)=O)C(=O)NC[C@@H]1C(=O)N[C@H](c2ccc(O)cc2)C(=O)N[C@H](CCCN)C(=O)N[C@H](C(C)C)C(=O)N[C@@H](c2ccc(O)cc2)C(=O)N[C@H](c2ccc(O)cc2)C(=O)N[C@@H]([C@@H](C)O)C(=O)N[C@@H](Cc2ccccc2)C(=O)N[C@H](CCCN)C(=O)N[C@@H](c2ccc(O[C@H]3O[C@H](CO)[C@@H](O)[C@H](O)[C@@H]3O[C@H]3O[C@H](CO)[C@@H](O)[C@H](O)[C@@H]3O)cc2)C(=O)N[C@H]([C@@H](C)O)C(=O)N[C@@H](c2ccc(O)cc2)C(=O)NCC(=O)N[C@@H](CC(C)C)C(=O)N[C@H](C)C(=O)N[C@@H](c2ccc(O)c(Cl)c2)C(=O)O[C@@H]1C(N)=O | ≤ 0.125 | 23 | > 128 | 0.5 (≈ 0.195 µM) | 1 | 2 | ≤ 0.125 | 1 (≈ 0.39 µM) | ≤ 0.125 | 37 | 0.5 | 0.5 | > 128 | 78 | ≤ 0.125 | ≤ 0.125 |  | 
2 | CC(C)C/C=C/C=C/CC(=O)N[C@@H](CC(N)=O)C(=O)NC[C@@H]1C(=O)N[C@H](c2ccc(O)cc2)C(=O)N[C@H](CCCN)C(=O)N[C@H](C(C)C)C(=O)N[C@@H](c2ccc(O)cc2)C(=O)N[C@H](c2ccc(O)cc2)C(=O)N[C@@H]([C@@H](C)O)C(=O)N[C@@H](Cc2ccccc2)C(=O)N[C@H](CCCN)C(=O)N[C@@H](c2ccc(O[C@H]3O[C@H](CO)[C@@H](O)[C@H](O)[C@@H]3O[C@H]3O[C@H](CO)[C@@H](O)[C@H](O)[C@@H]3O)cc2)C(=O)N[C@H]([C@@H](C)O)C(=O)N[C@@H](c2ccc(O)cc2)C(=O)NCC(=O)N[C@@H](CC(C)C)C(=O)N[C@H](C)C(=O)N[C@@H](c2ccc(O)c(Cl)c2)C(=O)O[C@@H]1C(N)=O | ≤ 0.125 | 85 | > 128 | 0.5 (≈ 0.194 µM) | 1 | 4 | ≤ 0.125 | 1 (≈ 0.388 µM) | ≤ 0.125 | 87 | 0.5 | 1 | > 128 | 78 | ≤ 0.125 | ≤ 0.125 |  | 
3 | CC(C)/C=C/C=C/CC(=O)N[C@@H](CC(N)=O)C(=O)NC[C@@H]1C(=O)N[C@H](c2ccc(O)cc2)C(=O)N[C@H](CCCN)C(=O)N[C@H](C(C)C)C(=O)N[C@@H](c2ccc(O)cc2)C(=O)N[C@H](c2ccc(O)cc2)C(=O)N[C@@H]([C@@H](C)O)C(=O)N[C@@H](Cc2ccccc2)C(=O)N[C@H](CCCN)C(=O)N[C@@H](c2ccc(O[C@H]3O[C@H](CO)[C@@H](O)[C@H](O)[C@@H]3O[C@H]3O[C@H](CO)[C@@H](O)[C@H](O)[C@@H]3O)cc2)C(=O)N[C@H]([C@@H](C)O)C(=O)N[C@@H](c2ccc(O)cc2)C(=O)NCC(=O)N[C@@H](CC(C)C)C(=O)N[C@H](C)C(=O)N[C@@H](c2ccc(O)c(Cl)c2)C(=O)O[C@@H]1C(N)=O | ≤ 0.125 | 30 | > 128 | 1 (≈ 0.39 µM) | 1 | 4 | 0.25 (≈ 0.0974 µM) | 2 (≈ 0.779 µM) | 0.25 (≈ 0.0974 µM) | 29 | 1 | 1 | > 128 |  | ≤ 0.125 | 0.25 (≈ 0.0974 µM) | ≤ 0.125 | ≤ 0.125

From ChEMBL document CHEMBL1145390, “Synthesis and preliminary biological characterization of new semisynthetic derivatives of ramoplanin” (J Med Chem, 2007)
